# Source: ChEMBL document CHEMBL3987221, “The Australian National University Dept Of Immunology Pathogen Box Compounds Screened” (2018)
# Calls of active or inactive are those of the source. How the calls were made is not given here.
# What was measured:
# [1] = target: T1, Porphobilinogen deaminase (Homo sapiens) (UniProt P08397); details: at 100 µM
# T1 sequence (whole entry): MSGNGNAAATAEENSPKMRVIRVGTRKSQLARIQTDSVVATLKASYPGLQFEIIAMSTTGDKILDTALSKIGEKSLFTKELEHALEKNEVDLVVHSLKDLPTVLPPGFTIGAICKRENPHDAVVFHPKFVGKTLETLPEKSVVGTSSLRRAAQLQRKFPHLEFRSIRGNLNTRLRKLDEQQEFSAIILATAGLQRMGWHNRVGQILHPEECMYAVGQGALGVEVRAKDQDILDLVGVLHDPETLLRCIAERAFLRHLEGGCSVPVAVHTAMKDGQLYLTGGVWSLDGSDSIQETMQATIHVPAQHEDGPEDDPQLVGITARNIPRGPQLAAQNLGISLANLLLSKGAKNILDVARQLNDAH
# Description: Compound was evaluated for the inhibition of human HMBS at 100uM
# [2] = target: T2, Ferrochelatase, mitochondrial (Homo sapiens) (UniProt P22830); details: at 10 µM
# T2 sequence (whole entry): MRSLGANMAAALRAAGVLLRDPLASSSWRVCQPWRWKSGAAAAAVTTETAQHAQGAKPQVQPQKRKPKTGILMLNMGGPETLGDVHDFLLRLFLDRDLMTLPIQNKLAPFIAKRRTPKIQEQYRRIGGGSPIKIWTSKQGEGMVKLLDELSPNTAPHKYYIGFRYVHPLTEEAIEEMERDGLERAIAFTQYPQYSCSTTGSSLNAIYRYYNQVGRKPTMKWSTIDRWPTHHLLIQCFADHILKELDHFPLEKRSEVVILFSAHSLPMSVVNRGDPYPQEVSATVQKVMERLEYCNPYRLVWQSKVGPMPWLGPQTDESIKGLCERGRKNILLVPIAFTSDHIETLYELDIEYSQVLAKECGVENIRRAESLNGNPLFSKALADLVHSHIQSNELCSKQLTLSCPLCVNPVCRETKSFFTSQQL
# Description: Compound was evaluated for the inhibition of human FECH at 10uM
Structure (SMILES),inhibition [1],inhibition [2]
CN1CCN(CCCOc2ncc(Nc3ncc(-c4ccc(C(F)(F)F)c(F)c4)nc3C(N)=O)cn2)CC1,inactive,inactive
CCCCOC(=O)Nc1cc2nc(C3CCCCC3)[nH]c2cc1N1CCCC1,inactive,inactive
Cc1nc(-c2ccccn2)nc(N2CCC(Cc3ccccc3)C2)c1Cl (centres undefined),inactive,inactive
CS(=O)(=O)c1ccccc1C(=O)N(Cc1ccccc1)c1ccccc1,inactive,inactive
CCOC(=O)c1cc(-c2csc(Nc3c(C)cc(C)cc3C)n2)on1,inactive,inactive
CCn1ncc2c(NC3CCOCC3)c(CNC(=O)c3ccnn3C)c(C)nc21,inactive,inactive
CCCCc1ccc(NC(=O)Nc2ccc(O[C@H]3CCCC[C@@H]3N(C)c3ccccc3)c(F)c2)cc1,inactive,inactive
CC1(C)Cc2c(c(N3CCOCC3)nc3snc(Br)c23)CO1,inactive,inactive
CC(c1cc(Cl)cc(Cl)c1)N(C)c1ncc2c(N)nc(N)nc2n1 (centres undefined),inactive,inactive
CC(C)(C)[C@H]1CC[C@H](CC2=C(O)C(=O)c3ccccc3C2=O)CC1,inactive,inactive
Cc1cc(NC(=O)c2ccc(Oc3ccc(Cl)cc3O)o2)no1,inactive,inactive
COc1ccc(C(=N)N)cc1-c1cn(-c2ccc(C(=N)N)cc2)nn1,inactive,inactive
Nc1ncnc2c1ncn2[C@@H]1O[C@H](COS(=O)(=O)NC(=O)c2ccccc2O)[C@@H](O)[C@H]1O,inactive,inactive
CCS(=O)(=O)N(Cc1ccco1)Cc1cc2ccc(C)cc2nc1O,inactive,inactive
O=C(NC1CC1)c1ccc(CSCc2ccccc2Cl)o1,inactive,inactive
O=C(C(Cc1c[nH]c2ccccc12)NS(=O)(=O)c1ccc(Cl)cc1)N1CCCCC1 (centres undefined),inactive,inactive
Cc1cc(NCC(C)C)c2[nH]nc(-c3ccccc3)c2n1,inactive,inactive
O=C(CCC1CCCCC1)Nc1cccc(-c2nnc(-c3ccco3)o2)c1,inactive,inactive
COc1cccc(CC(=O)N2CCC(n3c(C)nc4ccc(F)cc43)CC2)c1,inactive,inactive
O=C(NC1=NCCS1)c1sc2cc(F)ccc2c1Cl,inactive,inactive
COc1ccc(-c2nc(-c3cccc(NC(=O)Cc4ccc(F)cc4)c3)no2)cc1OC,inactive,inactive
COc1cc(CN2CCC3(C=Cc4ccccc43)CC2)cc2c1OCO2,inactive,inactive
Cc1cc(C)cc(COc2ccc3c(C)c(CCC(=O)O)c(=O)oc3c2C)c1,inactive,inactive

Structure (SMILES),inhibition [1],inhibition [2]
Cc1cc(Nc2ccncc2)n2nc(C)c(-c3ccccc3Cl)c2n1,inactive,inactive
Cc1ccc(-c2cc(C(=O)Nc3cccnc3)c3cc(Br)ccc3n2)cc1,inactive,inactive
CC(=O)Nc1ccc(-c2noc(CC3CCCN(Cc4cccc(F)c4C)C3)n2)cc1 (centres undefined),inactive,inactive
O=C1COCc2ccc(Br)cc2N1Cc1ccc(C(F)(F)F)cc1,inactive,inactive
COC(=O)c1c(NC(=O)c2cc3ccccc3oc2=O)sc2c1CCN(Cc1ccccc1)C2,inactive,inactive
CCc1ccc([C@@H]2C[C@H](C(F)(F)F)n3ncc(C(=O)NCc4ccc(OC)cc4)c3N2)cc1,inactive,inactive
O=C(Nc1ccc(N2CCNCC2)nc1)c1oc(-c2ccccc2)nc1C(F)(F)F,inactive,inactive
CC(C)C(C(=O)Nc1ccc(S(=O)(=O)N(C)C)cc1)c1ccc(Cl)cc1 (centres undefined),inactive,inactive
Cc1ccc2oc(-c3cc(NC(=O)Cc4ccccc4)ccc3Cl)nc2c1,inactive,inactive
Nc1nccc2ccc(Oc3ccncc3)cc12,inactive,inactive
Cc1cc(Cl)c(S(=O)(=O)N2CCCC2)cc1OCC(=O)NC1CCCCC1,inactive,inactive
COc1cccc(-c2cc3c(Nc4cccnc4)nccc3[nH]2)c1,inactive,inactive
COc1cc(NC(=O)Cc2nn(C)c(=O)c3ccccc23)ccc1Cl,inactive,inactive
O=C(NCc1ccoc1)N1CCN(Cc2ccc3c(c2)OCO3)CC1,inactive,inactive
Cc1cccc(Cn2ccc(NC(=O)c3ccc4c(c3)OCO4)n2)c1,inactive,inactive
Cc1ccc2cc(C3NC(=O)c4ccccc4N3)c(Cl)nc2c1 (centres undefined),inactive,inactive
CC(C)(C)n1nc(Cc2cccc3ccccc23)c2c(N)ncnc21,inactive,inactive
CC(C)(C)OC(=O)N1CCN(c2nccc(-c3ccc(-c4ccc(Cl)cc4)s3)n2)CC1,inactive,inactive
O=C(Nc1nnc(-c2ccc(Cl)s2)o1)c1ccc(Cl)s1,inactive,inactive
COc1ccc(CCN2CCC(NCc3cccc(N(C)C)c3)CC2)cc1,inactive,inactive
NCC(c1cccs1)S(=O)(=O)c1ccccc1 (centres undefined),inactive,inactive
CNC(=O)CNc1nc(-c2ccccn2)nc2scc(-c3ccccc3)c12,inactive,inactive
CC(C)=CCC/C(C)=C\CNCCNC1C2CC3CC(C2)CC1C3 (centres undefined),inactive,inactive

Structure (SMILES),inhibition [1],inhibition [2]
CCc1ccc(S(=O)(=O)Nc2cc(CN3CCN(CCC(C)C)CC3)ccc2C)cc1,inactive,inactive
COc1ccc2nccc(NC(=O)C3CCN(CCc4ccc(Cl)cc4)CC3)c2n1,inactive,inactive
CC(Oc1cccc(Cl)c1)C(=O)Nc1ccc2oc(-c3ccncc3)nc2c1 (centres undefined),inactive,inactive
COc1ccccc1CNC(=O)c1cc(C2CC2)nc2c1cnn2C(C)C,inactive,inactive
O=C(Nc1c(O)cccc1-c1nc2c(C(=O)O)cccc2o1)c1cc(-c2ccccc2)on1,inactive,inactive
Cc1cc(NC(=O)c2ccc(S(=O)(=O)N(Cc3ccccc3)C(C)C)cc2)no1,inactive,inactive
Nc1ccc(C(=O)Nc2ccc(-c3nc4ccccc4o3)cc2)cc1,inactive,inactive
CNc1cc(C)nc(C2CN(C(=O)c3n[nH]c4ccccc34)CCO2)c1 (centres undefined),inactive,inactive
O=C(NC1CCN(c2ccnc3ccccc23)C1)c1cccc(C(F)(F)F)c1 (centres undefined),inactive,inactive
Cc1nn(C)c(C)c1NS(=O)(=O)c1c(Cl)cc(-c2ccnc(N3CCNCC3)c2)cc1Cl,inactive,inactive
FC(F)(F)c1nnc2ccc(Cl)nn12,inactive,inactive
Cc1cc(O)nc(-n2nc(C)cc2C)n1,inactive,inactive
CS(=O)(=O)c1cccc(-c2cnc3[nH]cc(-c4ccc(CCC(=O)O)cc4)c3c2)c1,inactive,inactive
COc1cccc2c(C)nc(N=C(N)N)nc12,inactive,inactive
O=C(Nc1cccnc1)c1c(O)c2cccc3c2n(c1=O)CC3,inactive,inactive
Cc1cc(C)n2nc(C(=O)Nc3cc(C(F)(F)F)ccc3N3CCOCC3)nc2n1,inactive,inactive
Cc1ccc2nc(Cl)c(CNCc3cccs3)cc2c1,inactive,inactive
COc1ccc(Cn2cnc3c(-c4ccco4)nc(Cl)nc32)cc1,inactive,inactive
CCC(C)NC(=O)c1ccc(NC(=O)C2(c3ccccc3)CCCC2)cc1 (centres undefined),inactive,inactive
CCOc1ccc(OCC(=O)Nc2cc(C)cc(C)c2)cc1,inactive,inactive
O=C(c1cc2ccccc2o1)N1CCN(Cc2ccc3c(c2)OCO3)CC1,inactive,inactive
